# Results from patent publication US6469028B1, “Synthesis and use of retinoid compounds having negative hormone and/or anatgonist activities” (Allergan, Inc., priority 1995, dated 2002).
# What was measured:
# [1] = system: MRP-8 expression in primary foreskin keratinocytes; test: Example 20: MRP-8 expression in keratinocytes (RT-PCR); assay type: cell-based, human; details: AGN 191183 10^−7 M or AGN 193109 10^−6 M, 3 days
# Excerpt: Primary foreskin keratinocytes were isolated according to the procedure described by Nagpal et al. in J. Biol. Chem. 270:923 (1995) and cultured in keratinocyte growth medium (KGM) that was purchased from Clonetics. […] The mRNA was reverse transcribed into cDNA which then served as the template in a PCR amplification protocol using primers specific for either the glyceraldehyde phosphate dehydrogenase (GAPDH) housekeeping gene or MRP-8. The GAPDH primers had the sequences [NT] ID NO:6) and [NT] ID NO:7). The MRP-8 primers had the sequences [NT] ID NO:8) and [NT] ID NO:9). An aliquot from the MRP-8 amplification reaction (10 μl) was removed after every cycle of PCR amplification starting from 12 cycles and ending at 21 cycles. Similarly, an aliquot of the GAPDH amplification reaction was removed after every PCR cycle starting at 15 cycles and ending at 24 cycles. […] The staining intensity of the amplification products served as a quantitative measure of the amount of starting MRNA specific for the given primer set.
# hairless mice [2] = test: Example 2: skin irritation and weight loss by oral agonist, topical antagonist; assay type: in vivo; details: group B: oral AGN 191183 0.26 mg/kg/d alone, 4 days
# Experimental: Mice were simultaneously treated topically on the dorsal skin with vehicle (97.6% acetone/2.4% dimethylsulfoxide) or solutions of AGN 193109 in vehicle (6 ml/kg). Specific doses for the different treatment groups are give in Table 8. Treatments were administered daily for 4 consecutive days. Mice were weighed and graded for topical irritation daily as described in Example 1 up to and including 1 day after the last treatment. Percent body weight change is calculated by subtracting […], dividing by initial body weight, and multiplying by 100%. Topical irritation scores are calculated as described in Example 1.
# hairless mice [3] = test: Example 1: skin irritation by topical agonist, topical antagonist; assay type: in vivo; details: group B: AGN 191183 0.025 mg/kg/d topical alone, 5 days, scored to day 8, mean±SD
# Experimental: More particularly skin irritation was measured on a semiquantitative scale by the daily subjective evaluation of skin flaking and abrasions. A single number, the topical irritation score, summarizes the skin irritation induced in an animal during the course of an experiment. The topical irritation score is calculated as follows. The topical irritation score is the algebraic sum of a composite flaking score and a composite abrasion score. The composite scores range from 0-9 and 0-8 for flaking and abrasions, respectively, and take into account the maximum severity, the time of onset, and the average severity of the flaking and abrasions observed.
# The severity of flaking is scored on a 5-point scale and the severity of abrasions is scored on a 4-point scale, with higher scores reflecting greater severity. The maximum severity component of the composite scores would be the highest daily severity score assigned to a given animal during the course of observation.
# For the time of onset component of the composite score, a score ranging from 0 to 4 is assigned as follows:
# The average severity component of the composite score is the sum of the daily flaking or abrasion scores divided by the number of observation days.
# To calculate the composite flaking and abrasion scores, the average severity and time of onset scores are summed and divided by 2. The result is added to the maximal severity score. The composite flaking and abrasion scores are then summed to give the overall topical irritation score. Each animal receives a topical irritation score, and the values are expressed as the mean±SD of the individual scores of a group of animals. Values are rounded to the nearest integer.
# Female hairless mice [Crl:SKH1-hrBR] […] Treatments are applied to the dorsal skin in a total volume of 4 ml/kg (˜0.1 ml). Mice were observed daily and scored for flaking and abrasions up to and including 3 days after the last treatment, i.e., day 8.
# ECE16-1 cells = test: Example 17: EGF dependent proliferation of ECE16-1 cells; assay type: cell-based; details: 10 nM AGN 191183 and 0 nM AGN 193109, three days
# Experimental: ECE16-1 cells were seeded at a density of 1×10^4 cells per cm^2 in complete medium containing DMEM:F12 (3:1), nonessential amino acids, 5% FBS, 5 μg/ml transferring, 2 nM of 3,3′,5 triiodothyronine (thyroid hormone or “T3”), 0.1 nNM cholera toxin, 2 mM L-glutamine, 1.8×10^−4 M adenine and 10 ng/ml EGF. Cells were allowed to attach to plates overnight and then shifted to defined medium containing DMEM:F12 (3:1), 2 mM L-glutamine, nonessential amino acids, 0.1% bovine serum albumin, 1.8×10^−4 M adenine, 5 μg/ml transferring, 2 nM T3, 50 μg/ml ascorbic acid, 100 ug/ml streptomycin, 100 units/ml penicillin and 50 μg/ml gentamicin. Defined medium (DM) was supplemented with 10 ng/ml EGF. […] After three days of treatment, cells were harvested as described by Hembree et al. in Cancer Res. 54:3160 (1994) and cell numbers determined using a COULTER counter.
# guinea pigs = test: Example 5: premature epiphyseal plate closure (bone toxicity); assay type: in vivo; details: AGN 191183 0.06 mg/ml, intraperitoneal osmotic pump, 14 days, n=4
# Experimental: The osmotic pumps are designed by the manufacturer to deliver ˜5 μl of solution per hour continuously for 14 days.
# The animals were euthanized by carbon dioxide asphyxiation 14 days after implantation. The left tibia was removed and placed in 10% buffered formalin. The tibias were decalcified by exposure to a formic acid/formalin solution for 3-4 days, and paraffin sections were prepared. Sections were stained with hematoxylin and eosin by standard methods. The proximal tibial epiphyseal plate was examined and scored as closed or not closed. Epiphyseal plate closure is defined for this purpose as any interruption of the continuity of the epiphyseal growth plate cartilage, i.e., replacement by bone and/or fibroblastic tissue.
# CaSki cells = test: Example 18: proliferation of CaSki cells; assay type: cell-based
# Experimental: EGF was added to the retinoid treated cultures to give a final concentration of 20 ng/ml. […] The media was replaced with fresh media and each of the two retinoid compounds, as appropriate, every day. Cell numbers were determined using a COULTER counter as described above.
# [4] = system: stromelysin-1 expression in primary foreskin keratinocytes; test: Example 21: stromelysin-1 expression in keratinocytes (RT-PCR); assay type: cell-based, human; details: AGN 191183 10^−7 M or AGN 193109 10^−6 M, 24 hours
# Experimental: Total RNA prepared from mock-treated and retinoid-treated keratinocytes was reverse transcribed and the resulting cDNA was PCR amplified using β-actin or stromelysin-1 oligo primers exactly as described by Nagpal et al. in J. Biol. Chem. 270:923 (1995)), the disclosure of which has been incorporated by reference. A sample (10 μl) from the PCR amplification reaction was removed after every three cycles starting from 18 cycles of PCR amplification. The sample was electrophoresed on a 2% agarose gel and detected after ethidium bromide staining.
compound,measurement,setting,value
"C/C(=C\c1ccc(C(=O)O)cc1)c1ccc2c(c1)C(C)(C)CCC2(C)C [AGN 191183, 4-[(E)-2-(5,6,7,8-tetrahydro-5,5,8,8-tetramethylnaphthalen-2-yl)propen-1-yl]benzoic acid, reference compound]",MRP-8 mRNA expression,[1],inhibited
same,Topical Irritation Score,hairless mice [2],8 ± 1
same,% Weight Gain or (Loss),"hairless mice [2]; day 5 vs day 1, parentheses = loss",(21 ± 6) %
same,Topical Irritation Score,hairless mice [3],8 ± 2
same,EGF mediated proliferation,ECE16-1 cells,completely inhibited EGF mediated proliferation
same,epiphyseal plate closure,guinea pigs,All four of the AGN 191183-treated guinea pigs showed partial or complete epiphyseal plate closure
same,antiproliferative activity,"CaSki cells; AGN 191183 10^−10 to 10^−6 M, EGF 20 ng/ml, three days",no antiproliferative activity
same,increase in the proliferation rate,CaSki cells; ten thousand fold increase in AGN 191183 concentration,~20%
same,stromelysin-1 mRNA expression,[4],inhibited
